Where “and” joins values, the source holds several entries; their conditions need not be identical. Equal values may be shown once. Read-outs that look alike come from different tables or passages of the source.
Experiments:
[1] = target: T1, BRPF1 (Homo sapiens, UniProt P55201); assay: Liability panel screening by DSF: BRPF1; format: binding; details: DSF, 20 µM, n=2; read-out: Mean ΔTM BRPF1
T1 construct: This panel comprised ten highly ligandable kinases and bromodomains; made in house
T1 sequence (P55201 628-732 limits assumed): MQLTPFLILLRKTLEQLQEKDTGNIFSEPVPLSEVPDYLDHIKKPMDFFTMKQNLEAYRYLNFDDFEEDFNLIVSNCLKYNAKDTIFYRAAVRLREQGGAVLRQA
Method in brief: (§1)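 Thermal shift: in-house recombinant protein at 2 µM in 10 mM HEPES pH 7.5 with 500 mM NaCl, SYPRO Orange 1:1000, heated at 3 °C/min to 85 °C in technical duplicates. Tm is the Boltzmann inflection point, reported as ∆Tm in K.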

[2] = test system: HEK293T cells; assay: Cytotoxicity: metabolic activity (WST-8 / CCK-8 assay); details: HEK293T, 24 h, WST-8, normalized to 0.1% DMSO, single replicates
Procedure: Cells were incubated with the test compounds at the indicated concentrations solubilized with 0.1% DMSO for 24 h. Growth-rate was determined based on the change in confluence over 24 h normalized to the change in confluence of cells treated with the 0.1% DMSO control (n = 10). Metabolic activity was determined with a water-soluble tetrazolium-8 (WST-8) assay (n = 8) after 24 h treatment. Apoptotic cells were detected with a fluorogenic DNA dye coupled to the caspase-3/7 recognition sequence (DEVD) after 24 h treatment and the apoptotic cell count was normalized to 0.1% DMSO treated cells (n = 6).
HEK293T cells (German Collection of Microorganisms and Cell Culture GmbH, DSMZ; #ACC305) were cultured in DMEM high glucose, supplemented with 10% fetal calf serum (FCS), sodium pyruvate (1 mM), penicillin (100 µ/mL) and streptomycin (100 µg/mL) at 37 °C and 5% (v/v) CO2, and seeded in pre-coated (10 µg/mL collagen G solution (Merck KgaA; #L7213) for 30 min at 37 °C) 96-well plates (2 × 10^5 cells per well). After 24 h, the cells were treated with the respective NR3 CG compound candidate at the recommended concentration, bexarotene (100 µM) or doxorubicin (30 µM) as positive controls in DMEM high glucose supplemented with 0.1% FCS, penicillin (100 µ/mL), streptomycin (100 µg/mL) and 0.1% DMSO, or 0.1% DMSO alone as an untreated control. Each sample was prepared in at least four biologically independent replicates. […] Thereafter, the medium was aspirated and the cells were incubated for 3 h with 90 µL DMEM high glucose supplemented with 0.2% FCS, penicillin (100 µ/mL) and streptomycin (100 µg/mL) and additionally containing 10 µL Cell Counting Kit 8 solution (CCK-8; MedChemExpress, Monmouth Junction, New York, USA; #HY-K0301), and absorbance was measured at 1 h, 2 h and 3 h of incubation at 450 nm on a Tecan Spark Cyto to assess metabolic activity of the cells. Before drug administration, after the first medium exchange, 24 h after drug administration, and after fluorescence imaging cell confluence was assessed using the Tecan Spark Cyto, to account for changes in cell confluence due to drug administration and cell handling. Compound effects on cell confluence, apoptosis, metabolic activity and necrosis were normalized to the vehicle control of each biological replicate individually.

[3] = target: T2, CSNK1D (Homo sapiens, UniProt P48730); assay: Liability panel screening by DSF: CSNK1D; format: binding; details: DSF, 20 µM, n=2; read-out: Mean ΔTM CSNK1D
T2 construct: made in house
Method in brief: as §1

[4] = target: T3, BRD4 (Homo sapiens, UniProt O60885); assay: Liability panel screening by DSF: BRD4; format: binding; details: DSF, 20 µM, n=2; read-out: Mean ΔTM BRD4
T3 construct: This panel comprised ten highly ligandable kinases and bromodomains; made in house
Method in brief: as §1

[5] = target: T4, GSK3B (Homo sapiens, UniProt P49841); assay: Liability panel screening by DSF: GSK3B; format: binding; details: DSF, 20 µM, n=2; read-out: Mean ΔTM GSK3B
T4 construct: made in house

[6] = target: T5, TRIM24 (Homo sapiens, UniProt O15164); assay: Liability panel screening by DSF: TRIM24; format: binding; details: DSF, 20 µM, n=2; read-out: Mean ΔTM TRIM24
T5 construct: This panel comprised ten highly ligandable kinases and bromodomains; made in house
T5 sequence (O15164 899-1004 limits assumed): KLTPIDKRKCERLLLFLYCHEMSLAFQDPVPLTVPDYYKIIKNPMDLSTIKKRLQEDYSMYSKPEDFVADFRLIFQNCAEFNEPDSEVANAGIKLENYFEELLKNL
Method in brief: as §1

[7] = test system: NF-κB activity in HEK293 NF-κB reporter cells; assay: NF-kB activity assay (GFP reporter, ionomycin/PMA); format: cell-based; details: n=3
Method in brief: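 HEK293 NF-κB GFP reporter cells given compound in 0.1% DMSO for 4 h, then stimulated with ionomycin 100 ng/mL plus PMA 10 ng/mL. Imaged every 90 min over 24 h; GFP-positive cell count normalized to confluence, three independent biological replicates.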

[8] = test system: HEK293T cells; assay: Cytotoxicity: necrosis induction (red fluorescent dye for permeable plasma membranes); format: cell-based; details: 24 h, necrotic cell count normalized to 0.1% DMSO, single replicates;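 note: compounds applied in DMEM high glucose with 0.1% FCS and 0.1% DMSO, necrotic HEK293T cells counted by red staining of cells whose plasma membranes had become permeable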
[9] = target: T6, FGFR3 (Homo sapiens, UniProt P22607); assay: Liability panel screening by DSF: FGFR3; format: binding; details: DSF, 20 µM, n=2; read-out: Mean ΔTM FGFR3
T6 construct: made in house
Method in brief: as §1

[10] = test system: HEK293T cells; assay: Cytotoxicity: apoptosis induction (caspase-3/7 DEVD fluorogenic DNA dye); details: HEK293T, 24 h, apoptotic cell count normalized to 0.1% DMSO, single replicates
[11] = test system: Gal4-VP16; format: cell-based; details: vs. DMSO ctrl, single replicates n=1-3
[12] = test system: HEK293T cells; assay: Cytotoxicity: growth-rate (change in confluence over 24 h); details: normalized to 0.1% DMSO control, single replicates (n=1...)
[13] = target: T7, CDK2 (Homo sapiens, UniProt P24941); assay: Liability panel screening by DSF: CDK2; format: binding; details: DSF, 20 µM, n=2; read-out: Mean ΔTM CDK2
T7 construct: made in house
Method in brief: as §1

[14] = target: T8, MAPK1 (Homo sapiens, UniProt P28482); assay: Liability panel screening by DSF: MAPK1; format: binding; details: DSF, 20 µM, n=2; read-out: Mean ΔTM MAPK1
T8 construct: made in house
Method in brief: as §1

[15] = test system: ATF6 activity in Hela ATF6 reporter cells; assay: Endoplasmic reticulum stress assay (ATF6 Renilla luciferase reporter, tunicamycin); format: cell-based; details: for ATF6 activity (tunicamycin-induced endoplasmic reticulum stress): Hela ATF6 reporter cells, tunicamycin 100 ng/mL, 18 h, compounds at recommended concentrations, n = 5
Method in brief: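 HeLa ATF6 Renilla reporter cells were pretreated 4 h with compounds in 0.1% DMSO, then stimulated with tunicamycin (100 ng/mL) for 18 h. Renilla luminescence (DualGlo) was normalized to 0.1% DMSO control; five independent experiments.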

[16] = target: T9, ABL1 (Homo sapiens, UniProt P00519); assay: Liability panel screening by DSF: ABL1; format: binding; details: DSF, 20 µM, n=2; read-out: Mean ΔTM ABL1
T9 construct: made in house
Method in brief: as §1

T9 sequence (P00519 whole entry, species assumed): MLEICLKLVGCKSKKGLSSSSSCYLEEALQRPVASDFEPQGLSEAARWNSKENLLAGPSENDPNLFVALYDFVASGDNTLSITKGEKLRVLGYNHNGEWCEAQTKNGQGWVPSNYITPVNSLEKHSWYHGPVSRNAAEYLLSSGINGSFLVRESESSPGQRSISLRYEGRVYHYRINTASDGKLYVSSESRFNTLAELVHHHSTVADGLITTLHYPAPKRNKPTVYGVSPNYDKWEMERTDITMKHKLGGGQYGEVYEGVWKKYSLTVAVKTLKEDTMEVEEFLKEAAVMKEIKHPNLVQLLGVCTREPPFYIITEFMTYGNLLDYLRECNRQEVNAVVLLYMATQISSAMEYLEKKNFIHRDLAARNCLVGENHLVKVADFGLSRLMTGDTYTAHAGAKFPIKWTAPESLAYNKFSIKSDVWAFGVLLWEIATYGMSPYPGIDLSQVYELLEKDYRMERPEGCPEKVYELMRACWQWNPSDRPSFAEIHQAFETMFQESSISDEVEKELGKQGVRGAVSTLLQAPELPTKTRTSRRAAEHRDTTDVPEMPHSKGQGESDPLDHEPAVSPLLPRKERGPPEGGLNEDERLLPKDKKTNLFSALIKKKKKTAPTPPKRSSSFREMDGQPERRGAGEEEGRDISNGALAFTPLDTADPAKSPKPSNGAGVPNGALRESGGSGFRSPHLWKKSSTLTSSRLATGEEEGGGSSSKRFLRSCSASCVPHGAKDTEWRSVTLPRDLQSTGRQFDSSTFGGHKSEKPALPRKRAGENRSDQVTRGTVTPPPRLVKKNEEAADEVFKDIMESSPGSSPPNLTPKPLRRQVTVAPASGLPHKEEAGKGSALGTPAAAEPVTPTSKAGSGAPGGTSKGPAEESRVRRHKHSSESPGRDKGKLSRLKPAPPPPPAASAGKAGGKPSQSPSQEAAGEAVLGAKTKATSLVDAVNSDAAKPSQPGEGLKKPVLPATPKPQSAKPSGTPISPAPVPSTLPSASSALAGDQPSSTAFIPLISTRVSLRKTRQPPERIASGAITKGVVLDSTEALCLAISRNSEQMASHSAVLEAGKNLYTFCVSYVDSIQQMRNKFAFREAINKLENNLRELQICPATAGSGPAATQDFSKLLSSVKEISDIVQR
T8 sequence (P28482 whole entry, species assumed): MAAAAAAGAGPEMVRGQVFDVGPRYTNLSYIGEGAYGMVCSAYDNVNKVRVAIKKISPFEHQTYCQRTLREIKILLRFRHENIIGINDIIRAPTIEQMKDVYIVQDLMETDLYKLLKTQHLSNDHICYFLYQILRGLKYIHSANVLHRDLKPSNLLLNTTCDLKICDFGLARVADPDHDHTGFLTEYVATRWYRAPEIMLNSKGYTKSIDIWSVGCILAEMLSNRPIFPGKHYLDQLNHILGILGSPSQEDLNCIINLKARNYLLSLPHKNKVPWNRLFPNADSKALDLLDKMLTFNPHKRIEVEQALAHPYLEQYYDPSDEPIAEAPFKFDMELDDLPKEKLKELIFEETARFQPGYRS
T6 sequence (P22607 23-806, species assumed): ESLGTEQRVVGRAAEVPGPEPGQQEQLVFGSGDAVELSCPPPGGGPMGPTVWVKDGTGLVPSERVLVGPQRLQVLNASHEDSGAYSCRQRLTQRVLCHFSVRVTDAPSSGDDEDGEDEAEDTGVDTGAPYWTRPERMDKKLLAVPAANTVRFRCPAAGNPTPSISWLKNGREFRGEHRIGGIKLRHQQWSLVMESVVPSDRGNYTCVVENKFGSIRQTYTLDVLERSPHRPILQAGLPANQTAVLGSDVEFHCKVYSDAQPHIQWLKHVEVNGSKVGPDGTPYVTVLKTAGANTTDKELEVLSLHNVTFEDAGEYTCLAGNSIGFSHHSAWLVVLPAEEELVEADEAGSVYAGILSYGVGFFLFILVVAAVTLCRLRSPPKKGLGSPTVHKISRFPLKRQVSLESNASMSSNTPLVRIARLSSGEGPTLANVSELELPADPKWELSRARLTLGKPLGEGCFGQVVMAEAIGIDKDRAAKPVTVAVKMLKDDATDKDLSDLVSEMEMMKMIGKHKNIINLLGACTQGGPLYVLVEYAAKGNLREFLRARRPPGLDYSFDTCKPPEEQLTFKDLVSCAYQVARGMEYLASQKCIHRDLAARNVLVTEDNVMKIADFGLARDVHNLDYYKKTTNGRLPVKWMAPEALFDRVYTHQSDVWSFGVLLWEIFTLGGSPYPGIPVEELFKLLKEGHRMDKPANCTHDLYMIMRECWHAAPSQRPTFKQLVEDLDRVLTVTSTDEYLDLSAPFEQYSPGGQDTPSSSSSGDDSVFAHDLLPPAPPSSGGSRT
T4 sequence (P49841 whole entry, species assumed): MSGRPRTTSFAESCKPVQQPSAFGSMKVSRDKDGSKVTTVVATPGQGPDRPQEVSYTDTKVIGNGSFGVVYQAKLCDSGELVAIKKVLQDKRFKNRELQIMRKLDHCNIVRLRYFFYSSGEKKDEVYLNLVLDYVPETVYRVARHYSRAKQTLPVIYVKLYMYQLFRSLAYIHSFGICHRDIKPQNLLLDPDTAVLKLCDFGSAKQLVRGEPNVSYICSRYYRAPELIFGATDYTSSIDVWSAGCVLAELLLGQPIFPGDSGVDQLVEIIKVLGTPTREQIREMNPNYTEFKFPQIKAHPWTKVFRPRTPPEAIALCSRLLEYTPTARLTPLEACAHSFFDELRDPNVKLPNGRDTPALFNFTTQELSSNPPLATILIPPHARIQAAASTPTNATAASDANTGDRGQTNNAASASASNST
T2 sequence (P48730 whole entry, species assumed): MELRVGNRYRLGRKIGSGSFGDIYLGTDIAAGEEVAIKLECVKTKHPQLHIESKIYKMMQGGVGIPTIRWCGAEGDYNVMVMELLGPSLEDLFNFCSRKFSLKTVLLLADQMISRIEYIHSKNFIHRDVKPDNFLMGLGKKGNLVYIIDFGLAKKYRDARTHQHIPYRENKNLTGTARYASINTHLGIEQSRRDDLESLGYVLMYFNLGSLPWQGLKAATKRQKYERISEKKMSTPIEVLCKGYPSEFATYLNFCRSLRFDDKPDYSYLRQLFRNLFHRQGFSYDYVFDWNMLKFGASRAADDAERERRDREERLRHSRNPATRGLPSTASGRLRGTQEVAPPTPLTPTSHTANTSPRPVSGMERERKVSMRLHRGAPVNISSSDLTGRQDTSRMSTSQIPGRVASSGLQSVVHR

COc1cc(/C=C(\C#N)C(=O)Nc2nnc(C(F)(F)F)s2)ccc1OCc1ccc(C(F)(F)F)cc1C(F)(F)F [XCT790]
ΔTm at 20 µM [1]: -1.02 °C
Metabolic activity [MA] ([2]; 1 µM): 1.06 and 0.99 and 0.98 and 1.09 and 1.00 and 1.02 and 1.05 and 1.01
ΔTm at 20 µM [3]: 0.0531 °C
ΔTm at 20 µM [4]: -2.31 °C
ΔTm at 20 µM [5]: -0.62 °C
ΔTm at 20 µM [6]: 0.29 °C
Mean NFκB response ([7]; 1 µM, 1,5 h): 3626.75 GFP+-cells/confluence ∙ 1000
Mean NFκB response ([7]; 1 µM, 4,5 h): 4074.08 GFP+-cells/confluence ∙ 1000
Mean NFκB response ([7]; 1 µM, 7,5 h): 7428.22 GFP+-cells/confluence ∙ 1000
Mean NFκB response ([7]; 1 µM, 10,5 h): 16505.45 GFP+-cells/confluence ∙ 1000
Mean NFκB response ([7]; 1 µM, 13,5 h): 23920.00 GFP+-cells/confluence ∙ 1000
Mean NFκB response ([7]; 1 µM, 16,6 h): 29753.33 GFP+-cells/confluence ∙ 1000
Mean NFκB response ([7]; 1 µM, 19,5 h): 33970.00 GFP+-cells/confluence ∙ 1000
Mean NFκB response ([7]; 1 µM, 22,5 h): 37876.67 GFP+-cells/confluence ∙ 1000
Mean NFκB response ([7]; 1 µM, 3 h): 3669.25 GFP+-cells/confluence ∙ 1000
Mean NFκB response ([7]; 1 µM, 6 h): 4944.18 GFP+-cells/confluence ∙ 1000
Mean NFκB response ([7]; 1 µM, 9 h): 11887.81 GFP+-cells/confluence ∙ 1000
Mean NFκB response ([7]; 1 µM, 12 h): 20416.67 GFP+-cells/confluence ∙ 1000
Mean NFκB response ([7]; 1 µM, 15 h): 27150.00 GFP+-cells/confluence ∙ 1000
Mean NFκB response ([7]; 1 µM, 18 h): 32423.33 GFP+-cells/confluence ∙ 1000
Mean NFκB response ([7]; 1 µM, 21 h): 35883.33 GFP+-cells/confluence ∙ 1000
Mean NFκB response ([7]; 1 µM, 24 h): 39596.67 GFP+-cells/confluence ∙ 1000
Necrosis induction [NI] ([8]; 1 µM): 0.92 and 0.82 and 0.84 and 0.79
ΔTm at 20 µM [9]: 0.83 °C
Apoptosis induction [AI] ([10]; 1 µM): 0.85 (2×) and 0.75 and 0.81 and 1.26 and 1.13
VP16 control [fold reporter gene activity] ([11]; 1 µM): 1.11 fold reporter gene activity and 0.95 fold reporter gene activity and 0.91 fold reporter gene activity
Growth rate [GR] ([12]; 1 µM): 0.75 and 0.63 and 1.18 and 1.17 and 1.04 (2×) and 0.70 and 0.89 and 0.87 and 0.19
ΔTm at 20 µM [13]: 0.38 °C
ΔTm at 20 µM [14]: 0.28 °C
ATF6 activity (tunicamycin-induced endoplasmic reticulum stress) [15]: lacked this effect
activity at 1 µM ([15]; Homo sapiens, HeLa, 1 µM, single replicates n=1 to n=5, read-out: ER stress [rel. ATF6 activity]): 100%
ΔTm at 20 µM [16]: 0.47 °C

CCN(CC)c1ccc(/C=N/NC(=O)c2ccc(O)cc2)cc1 [DY131]
ΔTm at 20 µM [1]: 1.09 °C
Metabolic activity [MA] ([2]; 3 µM): 0.98 and 0.95 (2×) and 0.82 and 0.96 and 0.93 and 0.87 and 0.92
ΔTm at 20 µM [3]: -0.0354 °C
ΔTm at 20 µM [4]: -0.92 °C
ΔTm at 20 µM [5]: -0.28 °C
ΔTm at 20 µM [6]: -3.28 °C
Mean NFκB response ([7]; 3 µM, 1,5 h): 3734.45 GFP+-cells/confluence ∙ 1000
Mean NFκB response ([7]; 3 µM, 4,5 h): 4226.03 GFP+-cells/confluence ∙ 1000
Mean NFκB response ([7]; 3 µM, 7,5 h): 9363.33 GFP+-cells/confluence ∙ 1000
Mean NFκB response ([7]; 3 µM, 10,5 h): 20103.33 GFP+-cells/confluence ∙ 1000
Mean NFκB response ([7]; 3 µM, 13,5 h): 29726.67 GFP+-cells/confluence ∙ 1000
Mean NFκB response ([7]; 3 µM, 16,6 h): 36476.67 GFP+-cells/confluence ∙ 1000
Mean NFκB response ([7]; 3 µM, 19,5 h): 41143.33 GFP+-cells/confluence ∙ 1000
Mean NFκB response ([7]; 3 µM, 22,5 h): 44036.67 GFP+-cells/confluence ∙ 1000
Mean NFκB response ([7]; 3 µM, 3 h): 4084.29 GFP+-cells/confluence ∙ 1000
Mean NFκB response ([7]; 3 µM, 6 h): 5799.09 GFP+-cells/confluence ∙ 1000
Mean NFκB response ([7]; 3 µM, 9 h): 14733.33 GFP+-cells/confluence ∙ 1000
Mean NFκB response ([7]; 3 µM, 12 h): 25326.67 GFP+-cells/confluence ∙ 1000
Mean NFκB response ([7]; 3 µM, 15 h): 33133.33 GFP+-cells/confluence ∙ 1000
Mean NFκB response ([7]; 3 µM, 18 h): 38383.33 GFP+-cells/confluence ∙ 1000
Mean NFκB response ([7]; 3 µM, 21 h): 42820.00 GFP+-cells/confluence ∙ 1000
Mean NFκB response ([7]; 3 µM, 24 h): 45096.67 GFP+-cells/confluence ∙ 1000
Necrosis induction [NI] ([8]; 3 µM): 0.73 and 0.89 and 0.91 and 0.92
ΔTm at 20 µM [9]: 0.00876 °C
Apoptosis induction [AI] ([10]; 3 µM): -15.91 and -17.65 and -9.63 and -8.53 and 1.25 and 1.40
VP16 control [fold reporter gene activity] ([11]; 3 µM): 1.12 fold reporter gene activity and 1.24 fold reporter gene activity and 1.20 fold reporter gene activity
Growth rate [GR] ([12]; 3 µM): 0.59 and 11.37 and 0.74 and 0.90 and 0.70 and 0.29 and 0.57 and 4.91 and 1.76 and 192.70
ΔTm at 20 µM [13]: 0.35 °C
ΔTm at 20 µM [14]: 0.23 °C
ATF6 activity (tunicamycin-induced endoplasmic reticulum stress) [15]: strongly ameliorated the tunicamycin-induced endoplasmic reticulum stress
activity at 3 µM ([15]; Homo sapiens, HeLa, 3 µM, single replicates n=1 to n=5, read-out: ER stress [rel. ATF6 activity]): 25%
ΔTm at 20 µM [16]: 0.66 °C
